{"source": "patent US20150173371A1", "about": "(Dow AgroSciences LLC, priority 2013, published 2015)", "key": {"[1]": {"tested_on": "Conyza bonariensis (hairy fleabane, ERIBO)", "conditions": "field trial", "method": "(§1) Field trials were conducted under normal field conditions in multiple states in the United States, including but not limited to Alabama, Mississipi, South Carolina and Tennessee; and in Brazil, including but not limited to the states of Goias, Mato Grosso, Parana, Rio Grande do Sul, and Sao Paulo. Trials were established as RCB (randomized complete block) design, with 3-4 replicates per treatment, and plot sizes varying from 2-3 meters (m) wide by 4-8 m long. Treatments were applied with small plot backpack sprayers, using pressurized carbon dioxide (CO2) as propellant. Pressure varied from 22-40 PSI, with spray tips typically of a Flat Fan type applying water diluent at 150 L/ha. Boom sizes varied from 2-3 m in width. Treatments were applied to soybean, cotton or fallow crop land. Weed sizes varied, but all treatments were applied as post-emergence treatments to weeds from 2 leaf to 2 tiller growth stages varying from 2-15 inches (in) in height. No additional adjuvant was mixed with the treatments applied in the field\n(§2) The treated plots and control plots were rated blind at various intervals after application.\n(§3) Colby's equation was used to determine the herbicidal effects expected from the mixtures (Colby, S. R. Calculation of the synergistic and antagonistic response of herbicide combinations. Weeds 1967 15, 20-22). A t-test (alpha=0.05) between Colby predictions and observed combinations was used to test for significant differences indicating synergy or antagonism.\n(§4) The following equation was used to calculate the expected activity of mixtures containing two active ingredients, A and B:\n(§5) Expected=A+B−(A×B/100) • A=observed efficacy of active ingredient A at the same concentration as used in the mixture; • B=observed efficacy of active ingredient B at the same concentration as used in the mixture."}, "[2]": {"tested_on": "Ipomoea quamoclit (cypress vine morningglory, IPOQU)", "conditions": "7DAA, field trial, 1065 g ae/ha alone", "method": "as §1, §2, §3, §4, §5"}, "[3]": {"tested_on": "Conyza canadensis (horseweed, ERICA)", "conditions": "field trial", "method": "as §1, §2, §3, §4, §5"}, "[4]": {"tested_on": "Sesbania exaltata (hemp sesbania, SEBEX)", "assay": "Field trial, % visual weed control", "assay_type": "in vivo", "conditions": "8DAA, 800 g ae/ha alone", "excerpt": "(§6) Boom sizes varied from 2-3 m in width."}, "[5]": {"tested_on": "Raphanus raphanistrim (wild radish, RAPRA)", "assay": "Field trial, % visual weed control", "assay_type": "in vivo", "conditions": "6DAA, 780 g ae/ha alone", "excerpt": "as §6"}, "[6]": {"tested_on": "Spermacoce latifolia (broadleaf buttonweed, BOILF)", "assay": "Field trial, % visual weed control", "assay_type": "in vivo", "excerpt": "as §6"}, "[7]": {"tested_on": "Glycine max (soybean, glyphosate tolerant, GLXMA)", "assay": "Field trial, % visual weed control", "assay_type": "in vivo", "excerpt": "as §6"}, "[8]": {"tested_on": "Amaranthus palmeri (Palmer pigweed, AMAPA)", "assay": "Field trial, % visual weed control", "assay_type": "in vivo", "excerpt": "as §6"}, "[9]": {"tested_on": "Euphorbia heterophylla (wild poinsettia, EPHHL)", "assay": "Field trial, % visual weed control", "assay_type": "in vivo", "conditions": "28DAA, 585 g ae/ha alone", "excerpt": "as §6"}, "[10]": {"tested_on": "Ipomoea grandifolia (Corda-de-viola, IAQGR)", "assay": "Field trial, % visual weed control", "assay_type": "in vivo", "conditions": "17DAA, 780 g ae/ha alone", "excerpt": "as §6"}, "[11]": {"tested_on": "Euphorbia hirta (garden spurge, EPHHI)", "assay": "Field trial, % visual weed control", "assay_type": "in vivo", "excerpt": "as §6"}, "[12]": {"tested_on": "Commelina benghalensis (hairy wandering Jew, COMBE)", "assay": "Field trial, % visual weed control", "assay_type": "in vivo", "conditions": "780 g ae/ha alone", "excerpt": "as §6"}, "[13]": {"tested_on": "Tridax procumbens L (tridax daisy, TRQPR)", "assay": "Field trial, % visual weed control", "assay_type": "in vivo", "conditions": "16DAA, 780 g ae/ha alone", "excerpt": "as §6"}, "[14]": {"tested_on": "Brachiaria decumbens (Surinam grass, BRADC)", "assay": "Field trial, % visual weed control", "assay_type": "in vivo", "conditions": "12DAA, 684 g ae/ha alone", "excerpt": "as §6"}, "[15]": {"tested_on": "Ipomoea species (morningglory, IPOSS)", "assay": "Field trial, % visual weed control", "assay_type": "in vivo", "conditions": "8DAA, 800 g ae/ha alone", "excerpt": "as §6"}, "[16]": {"tested_on": "Jacquemontia tamnifolia (smallflower morningglory, IAQTA)", "assay": "Field trial, % visual weed control", "assay_type": "in vivo", "conditions": "7DAA, 1065 g ae/ha alone", "excerpt": "as §6"}, "[17]": {"tested_on": "Ambrosia artemisiifolia (common ragweed, AMBEL)", "assay": "Greenhouse trial, % visual weed control", "assay_type": "in vivo", "conditions": "14DAA, 100 g ae/ha alone", "method": "(§7) Greenhouse trials were conducted under controlled environment greenhouse conditions, with plants grown in pots with Metromix soil and bottom watered. Treatments were applied with 3 replicates per treatment, using a track sprayer with 2 flat fan nozzles at 40 pounds per square inch (PSI). Water was used as the diluent at 140 liters per hectare (L/ha), with weeds being 2-4 leaf stage and approximately 3 inches in height at treatment."}, "[18]": {"tested_on": "Abutilon theophrasti (velvetleaf, ABUTH)", "assay": "Greenhouse trial, % visual weed control", "assay_type": "in vivo", "conditions": "14DAA", "method": "as §7"}, "[19]": {"tested_on": "Elymus repens (quackgrass, AGRRE)", "assay": "Greenhouse trial, % visual weed control", "assay_type": "in vivo", "conditions": "14DAA, 200 g ae/ha alone", "method": "as §7"}, "[20]": {"tested_on": "Chenopodium album (common lambsquarter, CHEAL)", "assay": "Greenhouse trial, % visual weed control", "assay_type": "in vivo", "conditions": "14DAA", "method": "as §7"}}, "note": "Where “and” joins values, the source holds several entries; their conditions need not be identical. Equal values may be shown once. Read-outs that look alike come from different tables or passages of the source.", "data": [{"compound": "O=C(O)COc1ccc(Cl)cc1Cl", "note": "[2,4-D-Choline, 2-hydroxy-N,N,N-trimethylethanaminium 2-(2,4-dichlorophenoxyl)acetate]", "values": [{"measurement": "Mean % Weed Control", "setting": "[1]; 6DAA, 720 g ae/ha alone", "value": 5.0, "unit": "%"}, {"measurement": "Mean % Weed Control", "setting": "[1]; 6DAA, 1080 g ae/ha alone", "value": 5.0, "unit": "%"}, {"measurement": "Mean % Weed Control", "setting": "[1]; 7DAA, 780 g ae/ha alone", "value": "5.0% and 12.5%"}, {"measurement": "Mean % Weed Control", "setting": "[1]; 10DAA, 780 g ae/ha alone", "value": 46.3, "unit": "%"}, {"measurement": "Mean % Weed Control", "setting": "[1]; 20DAA, 780 g ae/ha alone", "value": 34.5, "unit": "%"}, {"measurement": "Mean % Weed Control", "setting": "[1]; 21DAA, 780 g ae/ha alone", "value": 38.8, "unit": "%"}, {"measurement": "Mean % Weed Control", "setting": "[1]; 31DAA, 780 g ae/ha alone", "value": 53.8, "unit": "%"}, {"measurement": "Mean % Weed Control", "setting": "[1]; 36DAA, 780 g ae/ha alone", "value": "27.5% and 17.5%"}, {"measurement": "Mean % Weed Control", "setting": "[2]", "value": 81.3, "unit": "%"}, {"measurement": "Mean % Weed Control", "setting": "[3]; 10DAA, 360 g ae/ha alone", "value": 11.7, "unit": "%"}, {"measurement": "Mean % Weed Control", "setting": "[3]; 10DAA, 720 g ae/ha alone", "value": 15, "unit": "%"}, {"measurement": "Mean % Weed Control", "setting": "[3]; 14DAA, 800 g ae/ha alone", "value": 58.8, "unit": "%"}, {"measurement": "Mean % Weed Control", "setting": "[3]; 15DAA, 360 g ae/ha alone", "value": 16.7, "unit": "%"}, {"measurement": "Mean % Weed Control", "setting": "[3]; 15DAA, 720 g ae/ha alone", "value": 21.7, "unit": "%"}, {"measurement": "Mean % Weed Control", "setting": "[3]; 21DAA, 800 g ae/ha alone", "value": 66.3, "unit": "%"}, {"measurement": "Mean % Weed Control", "setting": "[3]; 28DAA, 800 g ae/ha alone", "value": 50.0, "unit": "%"}, {"measurement": "Mean % Weed Control", "setting": "[3]; 31DAA, 360 g ae/ha alone", "value": 25, "unit": "%"}, {"measurement": "Mean % Weed Control", "setting": "[3]; 31DAA, 720 g ae/ha alone", "value": 40, "unit": "%"}, {"measurement": "Mean % Weed Control", "setting": "[4]", "value": 32.5, "unit": "%"}, {"measurement": "Mean % Weed Control", "setting": "[5]", "value": 80.0, "unit": "%"}, {"measurement": "Mean % Weed Control", "setting": "[6]; 18DAA, 780 g ae/ha alone", "value": 37.5, "unit": "%"}, {"measurement": "Mean % Weed Control", "setting": "[6]; 21DAA, 780 g ae/ha alone", "value": 63.8, "unit": "%"}, {"measurement": "Mean % Weed Control", "setting": "[6]; 24DAA, 480 g ae/ha alone", "value": 30.0, "unit": "%"}, {"measurement": "Mean % Weed Control", "setting": "[6]; 27DAA, 780 g ae/ha alone", "value": 67.5, "unit": "%"}, {"measurement": "Mean % Weed Control", "setting": "[6]; 28DAA, 780 g ae/ha alone", "value": 68.8, "unit": "%"}, {"measurement": "Mean % Weed Control", "setting": "[7]; 7DAA, 960 g ae/ha alone", "value": 50.0, "unit": "%"}, {"measurement": "Mean % Weed Control", "setting": "[7]; 16DAA, 456 g ae/ha alone", "value": 48.8, "unit": "%"}, {"measurement": "Mean % Weed Control", "setting": "[7]; 28DAA, 480 g ae/ha alone", "value": 58.8, "unit": "%"}, {"measurement": "Mean % Weed Control", "setting": "[7]; 28DAA, 960 g ae/ha alone", "value": 67.5, "unit": "%"}, {"measurement": "Mean % Weed Control", "setting": "[7]; 30DAA, 456 g ae/ha alone", "value": 60.0, "unit": "%"}, {"measurement": "Mean % Weed Control", "setting": "[8]; 7DAA, 800 g ae/ha alone", "value": 47.5, "unit": "%"}, {"measurement": "Mean % Weed Control", "setting": "[8]; 13DAA, 1065 g ae/ha alone", "value": 45.0, "unit": "%"}, {"measurement": "Mean % Weed Control", "setting": "[8]; 21DAA, 1065 g ae/ha alone", "value": 38.8, "unit": "%"}, {"measurement": "Mean % Weed Control", "setting": "[9]", "value": 65.0, "unit": "%"}, {"measurement": "Mean % Weed Control", "setting": "[10]", "value": 98.0, "unit": "%"}, {"measurement": "Mean % Weed Control", "setting": "[11]; 7DAA, 780 g ae/ha alone", "value": 13.8, "unit": "%"}, {"measurement": "Mean % Weed Control", "setting": "[11]; 18DAA, 780 g ae/ha alone", "value": 36.3, "unit": "%"}, {"measurement": "Mean % Weed Control", "setting": "[11]; 21DAA, 780 g ae/ha alone", "value": 0.0, "unit": "%"}, {"measurement": "Mean % Weed Control", "setting": "[11]; 24DAA, 480 g ae/ha alone", "value": 21.7, "unit": "%"}, {"measurement": "Mean % Weed Control", "setting": "[12]; 12DAA", "value": 70.0, "unit": "%"}, {"measurement": "Mean % Weed Control", "setting": "[12]; 15DAA", "value": "68.8% and 66.3%"}, {"measurement": "Mean % Weed Control", "setting": "[12]; 18DAA", "value": 43.8, "unit": "%"}, {"measurement": "Mean % Weed Control", "setting": "[12]; 27DAA", "value": 66.3, "unit": "%"}, {"measurement": "Mean % Weed Control", "setting": "[12]; 28DAA", "value": 67.5, "unit": "%"}, {"measurement": "Mean % Weed Control", "setting": "[12]; 35DAA", "value": 70.0, "unit": "%"}, {"measurement": "Mean % Weed Control", "setting": "[13]", "value": 12.5, "unit": "%"}, {"measurement": "Mean % Weed Control", "setting": "[14]", "value": 7.5, "unit": "%"}, {"measurement": "Mean % Weed Control", "setting": "[15]", "value": 80.0, "unit": "%"}, {"measurement": "Mean % Weed Control", "setting": "[16]", "value": 80.0, "unit": "%"}, {"measurement": "Mean % Weed Control", "setting": "[17]", "value": 25.0, "unit": "%"}, {"measurement": "Mean % Weed Control", "setting": "[18]; 100 g ae/ha alone", "value": 28.3, "unit": "%"}, {"measurement": "Mean % Weed Control", "setting": "[18]; 200 g ae/ha alone", "value": 46.7, "unit": "%"}, {"measurement": "Mean % Weed Control", "setting": "[18]; 400 g ae/ha alone", "value": 73.3, "unit": "%"}, {"measurement": "Mean % Weed Control", "setting": "[18]; 800 g ae/ha alone", "value": 88.3, "unit": "%"}, {"measurement": "Mean % Weed Control", "setting": "[19]", "value": 0.0, "unit": "%"}, {"measurement": "Mean % Weed Control", "setting": "[20]; 100 g ae/ha alone", "value": 5.0, "unit": "%"}, {"measurement": "Mean % Weed Control", "setting": "[20]; 200 g ae/ha alone", "value": 61.7, "unit": "%"}, {"measurement": "Mean % Weed Control", "setting": "[20]; 400 g ae/ha alone", "value": 75.0, "unit": "%"}]}]}
